# Starred links: 1 amine or outer side, 2 acyl side, 3 side chain; linkers in the order of their positions; H or OH if unused. Positions of bridges follow the written chain, without caps; N, C: chain ends. Non-standard residues stand in square brackets, D forms with d. Residues, ends and D or L forms follow the SMILES beside them. *: point of attachment. hPhe(3-Cl-4-CF3) = N[C@@H](CCc1ccc(C(F)(F)F)c(Cl)c1)C(=O)O; NMePhe(4-Me) = CN[C@@H](Cc1ccc(C)cc1)C(=O)O; NMePhe(4-F) = CN[C@@H](Cc1ccc(F)cc1)C(=O)O; X6 = CCN([C@@H](CC1CCCCC1)C(=O)[*:2])[*:1]; NMeAla(cPent) = CN[C@@H](CC1CCCC1)C(=O)O; NMePhe(2-F) = CN[C@@H](Cc1ccccc1F)C(=O)O; NMeGly(cPent) = CN[C@H](C(=O)O)C1CCCC1; NMeGly(cBu) = CN[C@H](C(=O)O)C1CCC1; NMeCha = CN[C@@H](CC1CCCCC1)C(=O)O; NMeCba = CN[C@@H](CC1CCC1)C(=O)O; NMeChg = CN[C@H](C(=O)O)C1CCCCC1; NMeI = CC[C@H](C)[C@H](NC)C(=O)O; NMeD = CN[C@@H](CC(=O)O)C(=O)O; NMeL = CN[C@@H](CC(C)C)C(=O)O; NMeNva = CCC[C@H](NC)C(=O)O; NMeV = CN[C@H](C(=O)O)C(C)C; d(β3hA) = C[C@@H](N)CC(=O)O; NMeA = CN[C@@H](C)C(=O)O; Piperidide = C1CCN(*)CC1; Ac5c = NC1(C(=O)O)CCCC1; Aze = O=C(O)[C@@H]1CCN1; Sar = CNCC(=O)O
# What was measured:
# [1] = biological target: T1, Kras and SOS1 (biotin-tagged human Kras loaded with GDP, His-tagged human SOS1) (Homo sapiens, UniProt P01116, G12D); assay: Protein-protein interaction inhibition between Kras and SOS1 (KrasGl2D-SOS PPI) using AlphaScreen; assay type: binding; conditions: AlphaScreen; biotin-tagged human Kras loaded with GDP, His-tagged human SOS1; read-out: KRAS G12D-SOS PPI IC50
# T1 construct: made in house; host or cells: E. coli (stated for Kras only)
# T1 sequence (P01116 1-188 isoform P01116-2 G12D): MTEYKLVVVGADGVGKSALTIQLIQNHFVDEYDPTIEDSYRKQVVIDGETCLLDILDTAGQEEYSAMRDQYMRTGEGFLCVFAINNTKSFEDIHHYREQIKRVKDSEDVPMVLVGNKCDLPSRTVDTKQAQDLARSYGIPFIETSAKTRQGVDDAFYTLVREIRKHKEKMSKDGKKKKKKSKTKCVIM
# Outline: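 Kras was produced in E. coli, purified, then loaded with GDP. It was paired via streptavidin acceptor beads with His-SOS1 held on nickel donor beads, and proximity signal at 520-620 nm was read after 680 nm illumination.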
# [2] = tested on: Human pancreatic cancer cell line AsPC-1; assay: Measurement of AsPC-1 cell growth inhibition (AsPC-1 CGI); assay type: cell-based; conditions: 96 h
# Outline: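 AsPC-1 cells in 15% FBS RPMI-1640 were exposed to test compound for 96 hours at 37° C, with CellTiter-Glo as endpoint.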
Compound,IC50 [1],IC50 [2]
CC[C@H](C)[C@@H]1NC(=O)[C@H](CC(C)C)N(C)C(=O)C[C@@H](C(=O)N2CCCCC2)N(C)C(=O)[C@H](C(C)C)N(C)C(=O)C2(CCCC2)NC(=O)[C@@H]2CCCN2C(=O)[C@H](CCc2ccc(C(F)(F)F)c(Cl)c2)NC(=O)CN(C)C(=O)[C@H](Cc2ccc(F)cc2)N(C)C(=O)CN(C)C(=O)CN(C)C1=O [Compound 1631] ([NMeL]I[Sar][Sar][NMePhe(4-F)][Sar][hPhe(3-Cl-4-CF3)]P[Ac5c][NMeV][NMeD]-Piperidide; lactam N-11),5 nM,100 to 500 nM
CC[C@H](C)[C@@H]1NC(=O)[C@H](CC(C)C)N(C)C(=O)C[C@@H](C(=O)N(C)C)N(C)C(=O)[C@H]([C@@H](C)CC)N(C)C(=O)C2(CCCC2)NC(=O)[C@H](Cc2ccccc2F)N(C)C(=O)[C@H](CCc2ccc(C(F)(F)F)c(Cl)c2)NC(=O)CN(C)C(=O)[C@H](Cc2ccc(C)cc2)N(C)C(=O)[C@@H]2CCN2C(=O)[C@H](C)N(C)C1=O [Compound 616] ([NMeL]I[NMeA][Aze][NMePhe(4-Me)][Sar][hPhe(3-Cl-4-CF3)][NMePhe(2-F)][Ac5c][NMeI][NMeD]-NMe2; lactam N-11),3.9 nM,50 to 100 nM
CC[C@H](C)[C@@H]1NC(=O)[C@H](C)N(C)C(=O)C[C@@H](C(=O)N2CCCCC2)N(C)C(=O)[C@H](C2CCCC2)N(C)C(=O)C2(CCCC2)NC(=O)[C@@H]2CCCN2C(=O)[C@H](CCc2ccc(C(F)(F)F)c(Cl)c2)NC(=O)CN(C)C(=O)[C@H](CC2CCCCC2)N(C)C(=O)CN(C)C(=O)CN(C)C1=O [Compound 246] ([NMeA]I[Sar][Sar][NMeCha][Sar][hPhe(3-Cl-4-CF3)]P[Ac5c][NMeGly(cPent)][NMeD]-Piperidide; lactam N-11),0.3 nM,50 to 100 nM
CC[C@H](C)[C@@H]1NC(=O)[C@H](CC(C)C)N(C)C(=O)C[C@@H](C(=O)N2CCCCC2)N(C)C(=O)[C@H](C2CCCCC2)N(C)C(=O)C2(CCCC2)NC(=O)[C@@H]2CCCN2C(=O)[C@H](CCc2ccc(C(F)(F)F)c(Cl)c2)NC(=O)CN(C)C(=O)[C@H](CC2CCCCC2)N(CC)C(=O)CN(C)C(=O)CN(C)C1=O [Compound 543] ([NMeL]I[Sar][Sar][X6][Sar][hPhe(3-Cl-4-CF3)]P[Ac5c][NMeChg][NMeD]-Piperidide; lactam N-11),0.56 nM,50 to 100 nM
CCC[C@H]1C(=O)NC2(CCCC2)C(=O)N(C)[C@@H](C2CCCCC2)C(=O)N(C)[C@H](C(=O)N2CCCCC2)CC(=O)N(C)[C@@H](CC(C)C)C(=O)N[C@@H]([C@@H](C)CC)C(=O)N(C)CC(=O)N2CC[C@H]2C(=O)N(C)[C@@H](CC2CCCCC2)C(=O)N(C)CC(=O)N[C@@H](CCc2ccc(C(F)(F)F)c(Cl)c2)C(=O)N1C [Compound 478] ([NMeL]I[Sar][Aze][NMeCha][Sar][hPhe(3-Cl-4-CF3)][NMeNva][Ac5c][NMeChg][NMeD]-Piperidide; lactam N-11),3 nM,100 to 500 nM
CC[C@H](C)[C@@H]1NC(=O)[C@H](CC(C)C)N(C)C(=O)C[C@@H](C(=O)N(C)C)N(C)C(=O)[C@H](C(C)C)N(C)C(=O)C2(CCCC2)NC(=O)[C@@H]2CCCN2C(=O)[C@H](CCc2ccc(C(F)(F)F)c(Cl)c2)NC(=O)CN(C)C(=O)[C@H](Cc2ccc(C)cc2)N(C)C(=O)CN(C)C(=O)CN(C)C1=O [Compound 1867] ([NMeL]I[Sar][Sar][NMePhe(4-Me)][Sar][hPhe(3-Cl-4-CF3)]P[Ac5c][NMeV][NMeD]-NMe2; lactam N-11),0.73 nM,100 to 500 nM
CC[C@H](C)[C@@H]1NC(=O)[C@H](CC2CCCC2)N(C)C(=O)C[C@@H](C)NC(=O)[C@H](C(C)C)N(C)C(=O)C2(CCCC2)NC(=O)[C@@H]2CCCN2C(=O)[C@H](CCc2ccc(C(F)(F)F)c(Cl)c2)NC(=O)CN(C)C(=O)[C@H](CC2CCCCC2)N(C)C(=O)CN(C)C(=O)CN(C)C1=O [Compound 901] (cyclo([Ac5c][NMeV][d(β3hA)][NMeAla(cPent)]I[Sar][Sar][NMeCha][Sar][hPhe(3-Cl-4-CF3)]P)),35 nM,100 to 500 nM
CC[C@H](C)[C@@H]1NC(=O)[C@H](C2CCC2)N(C)C(=O)C[C@@H](C(=O)N2CCCCC2)N(C)C(=O)[C@H](C2CCCCC2)N(C)C(=O)C2(CCCC2)NC(=O)[C@@H]2CCCN2C(=O)[C@H](CCc2ccc(C(F)(F)F)c(Cl)c2)NC(=O)CN(C)C(=O)[C@H](CC2CCCCC2)N(C)C(=O)CN(C)C(=O)CN(C)C1=O [Compound 562] ([NMeGly(cBu)]I[Sar][Sar][NMeCha][Sar][hPhe(3-Cl-4-CF3)]P[Ac5c][NMeChg][NMeD]-Piperidide; lactam N-11),0.56 nM,50 to 100 nM
CC[C@H](C)[C@@H]1NC(=O)[C@H](CC(C)C)N(C)C(=O)C[C@@H](C(=O)N2CCCCC2)N(C)C(=O)[C@H](C(C)C)N(C)C(=O)C2(CCCC2)NC(=O)[C@@H]2CCCN2C(=O)[C@H](CCc2ccc(C(F)(F)F)c(Cl)c2)NC(=O)CN(C)C(=O)[C@H](CC2CCC2)N(C)C(=O)[C@@H]2CCN2C(=O)[C@H](C)N(C)C1=O [Compound 1716] ([NMeL]I[NMeA][Aze][NMeCba][Sar][hPhe(3-Cl-4-CF3)]P[Ac5c][NMeV][NMeD]-Piperidide; lactam N-11),7.9 nM,100 to 500 nM
